Experimental data taken from patent publication US20230117034A1, “PYRAZOLOTRIAZINES” (Bayer Aktiengesellschaft, priority 2019, published 2023).
pIC50: −log10 of the molar value.

Tests used:
[1] = target: CDK12/CycK (Homo sapiens, UniProt Q9NYV4); assay: CDK12/CycK high ATP kinase assay (TR-FRET, 2 mM ATP); format: biochemical; conditions: 2 mM ATP (high ATP); median; read-out: CDK12/CyclinK, 2 mM ATP (high ATP), IC50-[mol/l] (median)
Method in brief: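 Read-out is TR-FRET (Eu-anti-rabbit IgG, anti-phospho-c-Myc Ser62 antibody, streptavidin-XL665) after EDTA stop. Reaction ran 60 min at 22 °C using 1 µM biotin-peptide and high ATP (2 mM) with roughly 0.75 nM recombinant CDK12/CycK, after 15 min compound pre-binding; normalised emission ratios yield IC50.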

[2] = test system: BRCA1 mRNA expression in CAL-120 cells; assay: qRT-PCR assay: BRCA1 mRNA expression in CAL-120; format: cell-based; conditions: Homo sapiens; Inhibition of BRCA1 mRNA expression in CAL-120 cells; median; read-out: RTqPCR-CAL-120, IC50, BRCA1 (median)
Method in brief: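 Seed 200,000 cells/well; 24 h later add compound, continuous exposure 24 h; extract RNA, 600 ng to cDNA; RT-qPCR, normalised to GAPDH.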

[3] = target: T1, CYCLIN K (nuclear staining in CAL-120 cells) (Homo sapiens, UniProt O75909); assay: CYCLIN K nuclear protein level: immunofluorescence high content analysis (CAL-120); format: cell-based; conditions: 24 h, 50% reduction of nuclear CCNK staining intensity, median, read-out: CYCLIN K degradation IF, DC50-[mol/l] (median)
T1 construct: endogenous in cells; host or cells: CAL-120 human breast cancer cells (DSMZ ACC 459)
T1 sequence (O75909 whole entry): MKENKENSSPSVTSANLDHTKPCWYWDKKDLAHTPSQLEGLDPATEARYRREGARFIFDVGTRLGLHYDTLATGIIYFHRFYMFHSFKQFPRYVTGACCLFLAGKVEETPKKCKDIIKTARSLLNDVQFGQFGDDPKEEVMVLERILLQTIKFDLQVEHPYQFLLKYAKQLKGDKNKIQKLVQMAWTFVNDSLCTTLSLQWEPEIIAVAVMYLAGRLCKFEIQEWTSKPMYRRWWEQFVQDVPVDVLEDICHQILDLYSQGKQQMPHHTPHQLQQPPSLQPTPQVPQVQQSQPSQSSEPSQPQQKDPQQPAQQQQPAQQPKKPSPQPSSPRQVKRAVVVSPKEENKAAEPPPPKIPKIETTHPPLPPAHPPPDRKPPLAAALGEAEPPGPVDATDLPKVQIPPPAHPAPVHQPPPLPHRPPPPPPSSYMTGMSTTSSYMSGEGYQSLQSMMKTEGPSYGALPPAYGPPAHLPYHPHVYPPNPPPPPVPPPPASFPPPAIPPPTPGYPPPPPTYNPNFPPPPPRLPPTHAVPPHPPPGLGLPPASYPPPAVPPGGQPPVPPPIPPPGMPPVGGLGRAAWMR
T1 sequence (Q9NYV4 whole entry partner): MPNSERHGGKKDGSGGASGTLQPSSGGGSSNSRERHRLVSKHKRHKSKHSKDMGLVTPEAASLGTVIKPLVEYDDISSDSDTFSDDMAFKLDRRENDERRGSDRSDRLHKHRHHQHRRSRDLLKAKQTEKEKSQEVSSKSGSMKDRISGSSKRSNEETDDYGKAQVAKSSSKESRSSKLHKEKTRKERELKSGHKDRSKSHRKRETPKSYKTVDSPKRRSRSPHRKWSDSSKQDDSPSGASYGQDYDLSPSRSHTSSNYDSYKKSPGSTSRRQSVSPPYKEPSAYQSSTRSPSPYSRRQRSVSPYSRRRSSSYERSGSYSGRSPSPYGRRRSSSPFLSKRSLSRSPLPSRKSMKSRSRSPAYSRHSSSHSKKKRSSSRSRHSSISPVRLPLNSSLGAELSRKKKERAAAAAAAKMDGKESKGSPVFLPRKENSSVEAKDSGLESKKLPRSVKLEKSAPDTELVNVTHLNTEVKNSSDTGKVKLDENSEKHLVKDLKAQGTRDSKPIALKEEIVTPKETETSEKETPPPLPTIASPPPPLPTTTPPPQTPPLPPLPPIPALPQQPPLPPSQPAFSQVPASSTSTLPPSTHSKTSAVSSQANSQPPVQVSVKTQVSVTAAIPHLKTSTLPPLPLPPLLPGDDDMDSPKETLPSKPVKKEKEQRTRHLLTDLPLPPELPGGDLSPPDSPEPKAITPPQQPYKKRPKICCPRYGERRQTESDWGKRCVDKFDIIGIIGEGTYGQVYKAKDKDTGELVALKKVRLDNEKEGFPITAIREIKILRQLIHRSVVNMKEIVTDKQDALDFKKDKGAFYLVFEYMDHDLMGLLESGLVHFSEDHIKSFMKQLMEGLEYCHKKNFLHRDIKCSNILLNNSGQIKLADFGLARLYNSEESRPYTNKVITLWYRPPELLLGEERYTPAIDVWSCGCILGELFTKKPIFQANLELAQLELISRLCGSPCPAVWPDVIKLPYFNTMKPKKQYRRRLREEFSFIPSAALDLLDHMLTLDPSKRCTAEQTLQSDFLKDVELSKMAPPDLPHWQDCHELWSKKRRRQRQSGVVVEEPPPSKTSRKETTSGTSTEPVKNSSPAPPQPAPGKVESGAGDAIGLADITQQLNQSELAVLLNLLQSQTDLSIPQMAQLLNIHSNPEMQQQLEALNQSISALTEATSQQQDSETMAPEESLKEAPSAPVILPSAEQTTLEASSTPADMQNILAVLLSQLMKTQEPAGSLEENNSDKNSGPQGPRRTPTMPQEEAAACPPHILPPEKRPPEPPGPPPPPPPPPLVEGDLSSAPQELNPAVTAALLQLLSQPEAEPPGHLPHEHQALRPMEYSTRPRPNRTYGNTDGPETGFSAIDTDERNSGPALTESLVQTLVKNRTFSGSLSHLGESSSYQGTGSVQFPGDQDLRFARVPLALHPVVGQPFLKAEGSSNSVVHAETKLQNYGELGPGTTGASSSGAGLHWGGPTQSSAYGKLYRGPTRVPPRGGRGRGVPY
Method in brief: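 Readout is automated confocal image analysis of nuclear cyclin K immunofluorescence (Hoechst nuclei) after PFA fixation. Cells were CAL-120, exposed to compound dose-response 24 h at 37 °C; values are DC50 for halving nuclear CCNK signal relative to DMSO and control wells.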

Chain of CDK12/CycK (Q9NYV4 with tags, fused parts or gaps): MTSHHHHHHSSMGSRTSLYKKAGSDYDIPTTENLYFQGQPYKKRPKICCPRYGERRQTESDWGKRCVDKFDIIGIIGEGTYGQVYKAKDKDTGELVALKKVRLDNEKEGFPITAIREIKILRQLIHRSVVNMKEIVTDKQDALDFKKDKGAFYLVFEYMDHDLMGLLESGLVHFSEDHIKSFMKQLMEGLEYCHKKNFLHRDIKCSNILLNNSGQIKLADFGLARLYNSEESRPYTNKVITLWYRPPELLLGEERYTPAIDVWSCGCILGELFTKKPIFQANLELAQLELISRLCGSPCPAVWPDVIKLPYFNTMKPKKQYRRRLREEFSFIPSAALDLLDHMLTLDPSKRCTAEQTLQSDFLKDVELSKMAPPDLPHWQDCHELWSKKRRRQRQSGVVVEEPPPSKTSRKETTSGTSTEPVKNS
Chain of CDK12/CycK (O75909 1-300 partner limits assumed): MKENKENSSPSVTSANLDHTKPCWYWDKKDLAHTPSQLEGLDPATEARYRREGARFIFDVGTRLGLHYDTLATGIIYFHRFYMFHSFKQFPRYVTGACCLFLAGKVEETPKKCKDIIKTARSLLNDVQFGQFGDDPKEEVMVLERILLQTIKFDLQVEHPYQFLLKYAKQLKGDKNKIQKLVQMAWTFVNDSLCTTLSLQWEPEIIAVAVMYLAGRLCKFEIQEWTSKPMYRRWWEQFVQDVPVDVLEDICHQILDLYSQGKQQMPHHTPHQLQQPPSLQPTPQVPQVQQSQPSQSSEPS

pIC50 [1]	pIC50 [2]	DC50 [3] [nM]	Compound
4.87	7.26		CC(C)c1cnn2c(NCc3ncc(-c4ccccc4)[nH]3)nc(N3CCN(C)CC3)nc12 [Example 31, 2-(4-methylpiperazin-1-yl)-N-[(5-phenyl-1H-imidazol-2-yl)methyl]-8-(propan-2-yl)pyrazolo[1,5-a][1,3,5]triazin-4-amine]
5.48	7.51	0.888	Cc1ccnc2[nH]c(CNc3nc(N4CCOCC4)nc4c(C(C)C)cnn34)nc12 [Example 28, N-[(7-methyl-3H-imidazo[4,5-b]pyridin-2-yl)methyl]-2-(morpholin-4-yl)-8-(propan-2-yl)pyrazolo[1,5-a][1,3,5]triazin-4-amine]
5.33		0.16	CN1CCN(c2nc(NCc3nc4cc(Cl)c(Cl)cc4[nH]3)n3ncc(Br)c3n2)CC1 [Example 330, 8-bromo-N-[(5,6-dichloro-1H-benzimidazol-2-yl)methyl]-2-(4-methylpiperazin-1-yl)pyrazolo[1,5-a][1,3,5]triazin-4-amine]
6.77		0.258	Fc1c(Cl)ccc2[nH]c(CNc3nc(N4CCOCC4)nc4c(C5CC5)cnn34)nc12 [Example 370, N-[(5-chloro-4-fluoro-1H-benzimidazol-2-yl)methyl]-8-cyclopropyl-2-(morpholin-4-yl)pyrazolo[1,5-a][1,3,5]triazin-4-amine]
5.06		0.369	CN1CCN(c2nc(NCc3nc4cc(F)c(Cl)cc4[nH]3)n3ncc(Br)c3n2)CC1 [Example 337, 8-bromo-N-[(6-chloro-5-fluoro-1H-benzimidazol-2-yl)methyl]-2-(4-methylpiperazin-1-yl)pyrazolo[1,5-a][1,3,5]triazin-4-amine]
5.93		0.17	CN(CC(C)(C)O)c1nc(NCc2nc3cc(F)c(Cl)cc3[nH]2)n2ncc(Br)c2n1 [Example 338, 1-[(8-bromo-4-{[(6-chloro-5-fluoro-1H-benzimidazol-2-yl)methyl]amino}pyrazolo[1,5-a][1,3,5]triazin-2-yl)(methyl)amino]-2-methylpropan-2-ol]
5.65		0.29	Fc1cc2nc(CNc3nc(N4CCOCC4)nc4c(Br)cnn34)[nH]c2cc1F [Example 341, 8-bromo-N-[(5,6-difluoro-1H-benzimidazol-2-yl)methyl]-2-(morpholin-4-yl)pyrazolo[1,5-a][1,3,5]triazin-4-amine]
5.44	7.08	3.36	Fc1ccc(-c2nnc(CNc3nc(N4CCOCC4)nc4c(Br)cnn34)[nH]2)cc1 [Example 29, 8-bromo-N-{[5-(4-fluorophenyl)-4H-1,2,4-triazol-3-yl]methyl}-2-(morpholin-4-yl)pyrazolo[1,5-a][1,3,5]triazin-4-amine]
5.66		0.101	CN(CC(C)(C)O)c1nc(NCc2nc3cc(F)c(F)cc3[nH]2)n2ncc(Br)c2n1 [Example 347]
5.94		0.552	Fc1ccc2[nH]c(CNc3nc(N4CCOCC4)nc4c(Cl)cnn34)nc2c1F [Example 357]
5.51		0.0805	CN1CCN(c2nc(NCc3nc4c(F)c(Cl)ccc4[nH]3)n3ncc(Br)c3n2)CC1 [Example 373, 8-bromo-N-[(5-chloro-4-fluoro-1H-benzimidazol-2-yl)methyl]-2-(4-methylpiperazin-1-yl)pyrazolo[1,5-a][1,3,5]triazin-4-amine]
6.85		0.113	Fc1cc2nc(CNc3nc(N4CCOCC4)nc4c(C(F)(F)F)cnn34)[nH]c2cc1F [Example 333, N-[(5,6-difluoro-1H-benzimidazol-2-yl)methyl]-2-(morpholin-4-yl)-8-(trifluoromethyl)pyrazolo[1,5-a][1,3,5]triazin-4-amine]
5.28		0.652	CN1CCN(c2nc(NCc3nc4c(F)c(Cl)ccc4[nH]3)n3ncc(C4CC4)c3n2)CC1 [Example 371, N-[(5-chloro-4-fluoro-1H-benzimidazol-2-yl)methyl]-8-cyclopropyl-2-(4-methylpiperazin-1-yl)pyrazolo[1,5-a][1,3,5]triazin-4-amine]
6.81		0.345	CN(CC(C)(C)O)c1nc(NCc2nc3c(F)c(Cl)ccc3[nH]2)n2ncc(Br)c2n1 [Example 374, 1-[(8-bromo-4-{[(5-chloro-4-fluoro-1H-benzimidazol-2-yl)methyl]amino}pyrazolo[1,5-a][1,3,5]triazin-2-yl)(methyl)amino]-2-methylpropan-2-ol]
6.46		0.44	CN(CC(C)(C)O)c1nc(NCc2nc3cc(Cl)c(Cl)cc3[nH]2)n2ncc(Br)c2n1 [Example 331, 1-[(8-bromo-4-{[(5,6-dichloro-1H-benzimidazol-2-yl)methyl]amino}pyrazolo[1,5-a][1,3,5]triazin-2-yl)(methyl)amino]-2-methylpropan-2-ol]
6.10		0.52	Fc1cc2nc(CNc3nc(N4CCOCC4)nc4c(Br)cnn34)[nH]c2cc1Cl [Example 336, 8-bromo-N-[(6-chloro-5-fluoro-1H-benzimidazol-2-yl)methyl]-2-(morpholin-4-yl)pyrazolo[1,5-a][1,3,5]triazin-4-amine]

Compound	pIC50 [1]	pIC50 [2]	DC50 [3] [nM]
Cc1cc2nc(CNc3nc(N4CC5CCC(C4)N5)nc4c(C5CC5)cnn34)[nH]c2cc1C [Example 326, 8-cyclopropyl-2-(3,8-diazabicyclo[3.2.1]octan-3-yl)-N-[(5,6-dimethyl-1H-benzimidazol-2-yl)methyl]pyrazolo[1,5-a][1,5]triazin-4-amine]	6.03		0.654
FC(F)(F)c1ccc2[nH]c(CNc3nc(N4CC5CCC(C4)N5)nc4c(Br)cnn34)nc2c1 [Example 354, 8-bromo-2-(3,8-diazabicyclo[3.2.1]octan-3-yl)-N-{[5-(trifluoromethyl)-1H-benzimidazol-2-yl]methyl}pyrazolo[1,5-a][1,3,5]triazin-4-amine]	5.43		1.65
Brc1cnn2c(NCc3nc4ccccc4[nH]3)nc(N3CCN4CCC3CC4)nc12 [Example 349, N-[(1H-benzimidazol-2-yl)methyl]-8-bromo-2-(1,4-diazabicyclo[3.2.2]nonan-4-yl)pyrazolo[1,5-a][1,3,5]triazin-4-amine]	5.06		0.784
Fc1c(Cl)ccc2[nH]c(CNc3nc(N4CC5CCC(C4)N5)nc4c(C5CC5)cnn34)nc12 [Example 379, N-[(5-chloro-4-fluoro-1H-benzimidazol-2-yl)methyl]-8-cyclopropyl-2-(3,8-diazabicyclo[3.2.1]octan-3-yl)pyrazolo[1,5-a][1,3,5]triazin-4-amine]	6.28		0.404
Cc1cc2nc(CNc3nc(N4CC5CCC(C4)N5)nc4c(Br)cnn34)[nH]c2cc1C [Example 353, 8-bromo-2-(3,8-diazabicyclo[3.2.1]octan-3-yl)-N-[(5,6-dimethyl-1H-benzimidazol-2-yl)methyl]pyrazolo[1,5-a][1,3,5]triazin-4-amine]	5.60		0.644
CN1C2CCC1CN(c1nc(NCc3nc4c(F)cccc4[nH]3)n3ncc(C(F)(F)F)c3n1)C2 [Example 384, N-[(4-fluoro-1H-benzimidazol-2-yl)methyl]-2-(8-methyl-3,8-diazabicyclo[3.2.1]octan-3-yl)-8-(trifluoromethyl)pyrazolo[1,5-a][1,3,5]triazin-4-amine]	5.09		0.662
Fc1ccc2[nH]c(CNc3nc(N4CC5CCC(C4)N5)nc4c(Cl)cnn34)nc2c1F.O=CO [Example 360, formic acid 8-chloro-2-(3,8-diazabicyclo[3.2.1]octan-3-yl)-N-[(4,5-difluoro-1H-benzimidazol-2-yl)methyl]pyrazolo[1,5-a][1,3,5]triazin-4-amine]	5.40		0.709
